Data published in ChEMBL document CHEMBL1136111 (Bioorg Med Chem Lett, 2003).
In brackets after ≈: the same amount, converted by molar mass.

Key:
[1] = system: Pseudomonas aeruginosa; assay: Minimum inhibitory concentration against Pseudomonas aeruginosa PS96; format: functional
[2] = system: Enterococcus faecium; assay: Minimum inhibitory concentration against Enterococcus faecium (VR; Vancomycin resistant) EF12; format: functional
[3] = system: Klebsiella pneumoniae; assay: Minimum inhibitory concentration against Klebsiella pneumoniae KL21; format: functional
[4] = system: Staphylococcus aureus; assay: Minimum inhibitory concentration against Staphylococcus aureus (MSCS; Methicillin sensitive, ciprofloxacin sensitive) MI246; format: functional
[5] = system: Escherichia coli; assay: Minimum inhibitory concentration against Escherichia coli DC2; format: functional
[6] = system: Streptococcus viridans; assay: Minimum inhibitory concentration against Streptococcus viridans STV1; format: functional
[7] = system: Enterobacter cloacae; assay: Minimum inhibitory concentration against Enterobacter cloacae AE63; format: functional
[8] = system: Proteus mirabilis; assay: Minimum inhibitory concentration against Proteus mirabilis PR91; format: functional
[9] = system: Staphylococcus saprophyticus; assay: Minimum inhibitory concentration against Staphylococcus saprophyticus SS276; format: functional
[10] = system: Staphylococcus aureus; assay: Minimum inhibitory concentration against Staphylococcus aureus (MSCS; Methicillin sensitive, ciprofloxacin sensitive) MI273; format: functional
[11] = system: Enterococcus faecalis; assay: Minimum inhibitory concentration against Enterococcus faecalis STD44
[12] = system: Enterococcus faecium; assay: Minimum inhibitory concentration against Enterococcus faecium (VS; Vancomycin sensitive) EF1; format: functional
[13] = system: Streptococcus pyogenes; assay: Minimum inhibitory concentration against Streptococcus pyogenes STA2; format: functional
[14] = system: Staphylococcus aureus; assay: Minimum inhibitory concentration against Staphylococcus aureus (MSCR; Methicillin sensitive, ciprofloxacin resistant) MI345; format: functional
[15] = system: Moraxella catarrhalis; assay: Minimum inhibitory concentration against Moraxella catarrhalis MC2; format: functional
[16] = system: Escherichia coli; assay: Minimum inhibitory concentration against Escherichia coli DC0; format: functional
[17] = system: Staphylococcus epidermidis; assay: Minimum inhibitory concentration against Staphylococcus epidermidis (MSCR; Methicillin sensitive, ciprofloxacin resistant) SE48; format: functional
[18] = system: Klebsiella pneumoniae; assay: Minimum inhibitory concentration against Klebsiella pneumoniae (CR; Ciprofloxacin resistant) KL328; format: functional
[19] = system: Staphylococcus aureus; assay: Minimum inhibitory concentration against Staphylococcus aureus (MRCS; Methicillin resistant, ciprofloxacin sensitive) MI300; format: functional
[20] = system: Staphylococcus aureus; assay: Minimum inhibitory concentration against Staphylococcus aureus (MRCR; Methicillin resistant, ciprofloxacin resistant) MI339
[21] = system: Streptococcus pneumoniae; assay: Minimum inhibitory concentration against Streptococcus pneumoniae (PS; Penicillin sensitive) STP6301; MIC (ug/mL) No growth; format: functional, organism-based
[22] = target: DNA topoisomerase II (Homo sapiens, UniProt P11388+Q02880); assay: Inhibitory activity against mammalian DNA topoisomerase II; format: protein assay
[23] = target: DNA gyrase (Escherichia coli); assay: Inhibitory activity against wild type gyrase in Escherichia coli
[24] = target: DNA gyrase (Escherichia coli); assay: Inhibitory activity against quinolone resistant gyrase in Escherichia coli
[25] = system: Escherichia coli; assay: Minimum inhibitory concentration against Escherichia coli ES142; format: functional
[26] = system: Streptococcus pneumoniae; assay: Minimum inhibitory concentration against Streptococcus pneumoniae (PR; Penicillin resistant) STP51; format: functional
[27] = system: Enterococcus faecium; assay: Minimum inhibitory concentration against Enterococcus faecium (VR; Vancomycin resistant) EF12; MIC (ug/mL) No growth; format: functional, organism-based
[28] = system: Streptococcus pneumoniae; assay: Minimum inhibitory concentration against Streptococcus pneumoniae (PS; Penicillin sensitive) STP6301; format: functional
[29] = system: Enterococcus faecalis; assay: Minimum inhibitory concentration against Enterococcus faecalis STD44; MIC (ug/mL) No growth
[30] = system: Streptococcus pneumoniae; assay: Minimum inhibitory concentration against Streptococcus pneumoniae PS; Penicillin sensitive) STP64; format: functional
[31] = system: Enterobacter cloacae; assay: Minimum inhibitory concentration against Enterobacter cloacae AE63; MIC (ug/mL) No growth; format: functional, organism-based

SMILES	MIC [1] [µg/mL]	MIC [3] [µg/mL]	MIC [4] [µg/mL]	MIC [5] [µg/mL]	MIC [6] [µg/mL]	MIC [7] [µg/mL]	MIC [8] [µg/mL]	MIC [9] [µg/mL]	MIC [10] [µg/mL]	MIC [12] [µg/mL]	MIC [13] [µg/mL]	MIC [14] [µg/mL]	MIC [15] [µg/mL]	MIC [16] [µg/mL]	MIC [17] [µg/mL]	MIC [18] [µg/mL]	MIC [19] [µg/mL]	MIC [20] [µg/mL]	IC50 [22] [µg/mL]	IC50 [23] [µg/mL]	further results
C[C@H]1COc2c(N3CCN(C)CC3)c(F)cc3c(=O)c(C(=O)O)cn1c23.C[C@H]1COc2c(N3CCN(C)CC3)c(F)cc3c(=O)c(C(=O)O)cn1c23.O [LEVOFLOXACIN]	0.5	< 0.004	0.12	0.25	0.25	0.008	0.06	0.12	0.12	0.25	0.5	2	0.03	0.25	2	4	0.12	2	–	–	MIC [2]: 1 µg/mL; MIC [11]: 0.25 µg/mL
C[C@H](N)[C@@H]1CCN(c2ccc3c(=O)c(C(=O)O)cn4c3c2OC[C@@H]4C)C1	1 (≈ 2.8 µM)	0.016 (≈ 0.0448 µM)	0.031 (≈ 0.0867 µM)	0.063 (≈ 0.176 µM)	0.125 (≈ 0.35 µM)	0.125 (≈ 0.35 µM)	2 (≈ 5.6 µM)	0.125 (≈ 0.35 µM)	0.125 (≈ 0.35 µM)	1 (≈ 2.8 µM)	0.016 (≈ 0.0448 µM)	1 (≈ 2.8 µM)	0.125 (≈ 0.35 µM)	2 (≈ 5.6 µM)	1 (≈ 2.8 µM)	> 8	0.063 (≈ 0.176 µM)	2 (≈ 5.6 µM)	38 (≈ 106 µM)	6.4 (≈ 17.9 µM)	MIC [2]: 1 µg/mL (≈ 2.8 µM); MIC [21]: No growth; MIC [11]: 0.031 µg/mL (≈ 0.0867 µM); IC50 [24]: 51.2 µg/mL (≈ 143 µM); MIC [25]: 0.5 µg/mL (≈ 1.4 µM); MIC [26]: 0.063 µg/mL (≈ 0.176 µM)
C[C@H]1COc2c(N3CCC[C@H](N)C3)ccc3c(=O)c(C(=O)O)cn1c23	> 32	0.25 (≈ 0.728 µM)	2 (≈ 5.82 µM)	2 (≈ 5.82 µM)	> 32	0.25 (≈ 0.728 µM)	2 (≈ 5.82 µM)	16 (≈ 46.6 µM)	4 (≈ 11.6 µM)	> 32	> 32	> 32	2 (≈ 5.82 µM)	16 (≈ 46.6 µM)	> 32	> 32	2 (≈ 5.82 µM)	> 32	> 500	63 (≈ 183 µM)	MIC [27]: No growth; MIC [28]: > 32 µg/mL; MIC [29]: No growth; IC50 [24]: > 500 µg/mL; MIC [30]: > 32 µg/mL; MIC [25]: 1 µg/mL (≈ 2.91 µM)
C[C@H]1COc2c(N3CC[C@@H](C(C)(C)N)C3)ccc3c(=O)c(C(=O)O)cn1c23	4 (≈ 10.8 µM)	0.031 (≈ 0.0835 µM)	0.063 (≈ 0.17 µM)	0.125 (≈ 0.337 µM)	1 (≈ 2.69 µM)	0.25 (≈ 0.673 µM)	4 (≈ 10.8 µM)	0.031 (≈ 0.0835 µM)	0.125 (≈ 0.337 µM)	1 (≈ 2.69 µM)	0.016 (≈ 0.0431 µM)	2 (≈ 5.38 µM)	0.063 (≈ 0.17 µM)	4 (≈ 10.8 µM)	1 (≈ 2.69 µM)	> 8	0.063 (≈ 0.17 µM)	2 (≈ 5.38 µM)	150 (≈ 404 µM)	3.2 (≈ 8.62 µM)	MIC [2]: 1 µg/mL (≈ 2.69 µM); MIC [28]: 0.016 µg/mL (≈ 0.0431 µM); MIC [11]: 0.125 µg/mL (≈ 0.337 µM); IC50 [24]: > 102 µg/mL; MIC [25]: 0.5 µg/mL (≈ 1.35 µM); MIC [26]: 0.5 µg/mL (≈ 1.35 µM)
C[C@H]1COc2c(N3CCN(C)CC3)ccc3c(=O)c(C(=O)O)cn1c23	> 32	1 (≈ 2.91 µM)	4 (≈ 11.6 µM)	16 (≈ 46.6 µM)	32 (≈ 93.2 µM)	–	8 (≈ 23.3 µM)	4 (≈ 11.6 µM)	8 (≈ 23.3 µM)	> 32	4 (≈ 11.6 µM)	> 32	4 (≈ 11.6 µM)	> 32	> 32	> 32	4 (≈ 11.6 µM)	> 32	250 (≈ 728 µM)	31 (≈ 90.3 µM)	MIC [27]: No growth; MIC [28]: 16 µg/mL (≈ 46.6 µM); MIC [29]: No growth; IC50 [24]: > 500 µg/mL; MIC [30]: 16 µg/mL (≈ 46.6 µM); MIC [25]: 8 µg/mL (≈ 23.3 µM); MIC [26]: 32 µg/mL (≈ 93.2 µM); MIC [31]: No growth
